Measurements as given in paper PMC8486872, “A rational blueprint for the design of chemically-controlled protein switches” (Nature Communications, 2021).
“And” between values parts separate entries of the source, which are not always exact repeats. Equal entries are not always repeated.

Tests used:
Type in all cases: cell-based
[1] = system: Gal4/UAS SEAP expression in HEK293T cells; test: Drug specificity of CDH-TFs; details: Suppl Fig 7b
Description: Supplementary Figure 7: Dose-dependence and reversibility characterization of CDHs in CDH-
a) Background signal of SEAP reporter in the absence of the CDH-TF system. HEK239T cells were
(§1) transfected with SEAP reporter S132 and treated with 1 µM Drugs 12 hours post transfection.
(§2) Quantification of SEAP was performed 24 hours after drug treatment. b) Drug specificity of CDH-TFs. […]

[2] = system: SEAP and Luciferase expression in HEK293T cells; test: MIMO designer cells (AIR-1/2-GEMS + CDH-3-TF); details: for SEAP: Fig5c, turn ON via AIR-2-GEMS
Description: We first engineered MIMO cells to respond to two drugs with distinct outputs (Fig. 5a) by co-transfecting the CDH-3-TF with either AIR-1-GEMS (Fig. 5b) or AIR-2-GEMS (Fig. 5c).
Fig. 5 Orthogonal chemical switches enable implementation of multi-input multi-output control modes in mammalian cells. a Scheme of multi-inputs multi-outputs (MIMO) designer cells where two drugs control two different outputs. b, c Cells were co-transfected with AIR-1/2-GEMS and CDH-3-TF regulate SEAP and Luciferase expression, respectively. […] AIR-1/2-GEMS coupled with SEAP expression circuits were co-transfected with CDH-1/2-TF circuits which control the Luciferase production. Respective drug concentrations ranged from 0.001 nM to 1 µM. All values presented are mean ± s.d. of three replicates and curves were fitted by four-parameters nonlinear regression. b, c, e, f, h, i Source data are available in the source data file.
Supplementary Figure 13: Orthogonal chemical switches enable implementation of multi-input multi-output control modes in mammalian cells. a) Dual drug toxicity tests in 293T cells. […]
concentrations of 1 nM, 10 nM, 100 nM and 1000 nM each drug in cell culture medium. CCK8 assay was performed 24 hours after drug treatment. Each bar represents the mean of three biological replicates ± s.d, overlaid with a scatter dot plot of the original data points. b-c) Cells were co-transfected with AIR-1-GEMS and CDH-3-TF regulate SEAP and Luciferase expression, respectively. Drug concentrations ranged from 0.001 nM to 1 µM and different combinations were added depending on the protein components, Drug-1 only (b) and Drug-3 only (c). d-e) Cells were co-transfected with AIR-2-GEMS and CDH-3-TF regulate SEAP and Luciferase expression, respectively. Drug concentrations ranged from 0.001 nM to 1 µM and different combinations were added depending on the protein […]
1-TF and CDH-3-TF circuits. Drug-1 concentrations ranged from 0.001 nM to 1 µM (left) and 1 µM Drug-1 with serial diluted Drug-3 from 0.001 nM to 1 µM (right). g) Quantification of SEAP activity controlled by CDH-1-GEMS and CDH-3-GEMS circuits. Drug-1 concentrations ranged from 0.001 nM to 1 µM (left) and Drug-3 dilution along with 1 µM Drug-1 (right). h-i) Quantification of SEAP and Luciferase activities under Drug-1. AIR-1-GEMS coupled with SEAP expression circuits (i) and CDH-1-TF circuits which control the Luciferase production (j). j-k) Quantification of SEAP and Luciferase activities under Drug-2. AIR-2-GEMS coupled with SEAP expression circuits (k) and CDH-2-TF circuits which control the Luciferase production (l). b-k) Each data point represents the mean of n = 3 biological replicates, and the dose-dependent curve were fitted using four-parameter nonlinear regression.

[3] = system: SEAP expression in HEK293T cells; test: Background signal of SEAP reporter and single-construct controls
Description: Supplementary Figure 7: Dose-dependence and reversibility characterization of CDHs in CDH- […]
as §1, §2
Background signal of SEAP reporter in the absence of the CDH-GEMS system. HEK293T cells were transfected with pLS566 SEAP reporter plasmids and treated with drugs. Quantification of SEAP was performed 24 hours post drug treatment. f) SEAP activity upon transfecting single or paired […]
Quantification of SEAP activity of three CDHs with DMSO (dark color), specific (light color) and unspecific drug treatment (gray). […]
(culture medium) in panels of b, c, f and g were collected every 12 hours. Values were normalized to zero based on the SEAP expression at time 0. a, b, e, f, g) The bar charts show the mean ± s.d. of n = 3 biologically independent samples overlaid with a scatter dot plot of the original data points.

[4] = Suppl Fig 7a, TF reporter (S132) only
[5] = Suppl Fig 7e, GEMS reporter (pLS566) only
[6] = Fig5c SEAP via AIR-2-GEMS, four-parameter fit

CN(C)CC#Cc1ccc(OCCCc2sc(N3CCc4cccc(C(=O)Nc5nc6ccccc6s5)c4C3)nc2C(=O)O)c(F)c1 [Drug-1, A-1155463]
Reporter signal, drug specificity ([1]; CDH1): 10.7853 and 9.721 and 10.2555
Reporter signal, drug specificity ([1]; CDH3): 120.91 and 123.106 and 130.139
AIR-1-GEMS controlled SEAP expression ([2]; Fig S13b, Drug-1 0.01 nM): 2.034 U/L and 2.266 U/L and 2.426 U/L
CDH-3-TF controlled Luciferase expression ([2]; Fig S13b, Drug-1 0.01 nM): 63197 RLU and 77075 RLU and 76343 RLU
AIR-1-GEMS controlled SEAP expression ([2]; Fig S13b, Drug-1 0.1 nM): 2.577 U/L and 3.504 U/L and 1.937 U/L
CDH-3-TF controlled Luciferase expression ([2]; Fig S13b, Drug-1 0.1 nM): 69663 RLU and 84855 RLU and 75827 RLU
AIR-1-GEMS controlled SEAP expression ([2]; Fig S13b, Drug-1 1 nM): 2.677 U/L and 2.7744 U/L and 2.999 U/L
CDH-3-TF controlled Luciferase expression ([2]; Fig S13b, Drug-1 1 nM): 81097 RLU and 77144 RLU and 82001 RLU
AIR-1-GEMS controlled SEAP expression ([2]; Fig S13b, Drug-1 3.16 nM): 4.756 U/L and 3.455 U/L and 4.71 U/L
CDH-3-TF controlled Luciferase expression ([2]; Fig S13b, Drug-1 3.16 nM): 79328 RLU and 72559 RLU and 71332 RLU
AIR-1-GEMS controlled SEAP expression ([2]; Fig S13b, Drug-1 10 nM): 14.6262 U/L and 14.8753 U/L and 12.6214 U/L
CDH-3-TF controlled Luciferase expression ([2]; Fig S13b, Drug-1 10 nM): 80379 RLU and 81140 RLU and 95805 RLU
AIR-1-GEMS controlled SEAP expression ([2]; Fig S13b, Drug-1 31.6 nM): 24.9389 U/L and 23.1767 U/L and 24.3137 U/L
CDH-3-TF controlled Luciferase expression ([2]; Fig S13b, Drug-1 31.6 nM): 89062 RLU and 83795 RLU and 94983 RLU
AIR-1-GEMS controlled SEAP expression ([2]; Fig S13b, Drug-1 100 nM): 28.6367 U/L and 35.4252 U/L and 28.7763 U/L
CDH-3-TF controlled Luciferase expression ([2]; Fig S13b, Drug-1 100 nM): 85794 RLU and 82597 RLU and 83527 RLU
AIR-1-GEMS controlled SEAP expression ([2]; Fig S13b, Drug-1 316 nM): 33.0089 U/L and 34.8793 U/L and 29.7782 U/L
CDH-3-TF controlled Luciferase expression ([2]; Fig S13b, Drug-1 316 nM): 82096 RLU and 72932 RLU and 89789 RLU
AIR-1-GEMS controlled SEAP expression ([2]; Fig S13b, Drug-1 1000 nM): 37.3806 U/L and 38.9993 U/L and 31.1376 U/L
CDH-3-TF controlled Luciferase expression ([2]; Fig S13b, Drug-1 1000 nM): 73138 RLU and 75381 RLU and 85198 RLU
Reporter background signal [3, 4]: 2.1563 and 2.182 and 2.388
Reporter background signal [3, 5]: 2.888 and 3.062 and 3.039

CC1(C)CCC(CN2CCN(c3ccc(C(=O)NS(=O)(=O)c4ccc(NCC5CCOCC5)c([N+](=O)[O-])c4)c(Oc4cnc5[nH]ccc5c4)c3)CC2)=C(c2ccc(Cl)cc2)C1 [Drug-2, Venetoclax]
Reporter signal, drug specificity ([1]; CDH2): 31.2802 and 28.6812 and 29.088
Bottom (best-fit value) [2, 6]: 11.58
HillSlope (best-fit value) [2, 6]: 0.4637
Span (best-fit value) [2, 6]: 174.4
Top (best-fit value) [2, 6]: 186
logIC50 (best-fit value) ([2]; Fig5c SEAP via AIR-2-GEMS, four-parameter fit, drug in nM): 2.821
SEAP ([2]; 0.1 nM): 16.9661 U/L and 14.3649 U/L and 16.0293 U/L
SEAP ([2]; 0.5 nM): 32.7217 U/L and 18.5086 U/L and 20.3629 U/L
SEAP ([2]; 1 nM): 9.507 U/L and 8.828 U/L and 9.449 U/L
SEAP ([2]; 5 nM): 12.4048 U/L and 14.8898 U/L and 15.5553 U/L
SEAP ([2]; 10 nM): 53.9453 U/L and 51.1 U/L and 44.2357 U/L
SEAP ([2]; 50 nM): 67.8694 U/L and 53.3505 U/L and 65.0318 U/L
SEAP ([2]; 500 nM): 99.6195 U/L and 87.3604 U/L and 83.3391 U/L
SEAP ([2]; 1000 nM): 116.832 U/L
AIR-2-GEMS controlled SEAP expression ([2]; Fig S13d, Drug-2 0.01 nM): 59.8517 U/L and 85.418 U/L and 69.2527 U/L
CDH-3-TF controlled Luciferase expression ([2]; Fig S13d, Drug-2 0.01 nM): 46959 RLU and 46941 RLU and 46901 RLU
AIR-2-GEMS controlled SEAP expression ([2]; Fig S13d, Drug-2 0.1 nM): 118.67 U/L and 114.835 U/L and 107.758 U/L
CDH-3-TF controlled Luciferase expression ([2]; Fig S13d, Drug-2 0.1 nM): 41162 RLU and 49637 RLU and 46127 RLU
AIR-2-GEMS controlled SEAP expression ([2]; Fig S13d, Drug-2 1 nM): 115.899 U/L and 181.597 U/L and 152.021 U/L
CDH-3-TF controlled Luciferase expression ([2]; Fig S13d, Drug-2 1 nM): 45977 RLU and 44865 RLU and 47068 RLU
AIR-2-GEMS controlled SEAP expression ([2]; Fig S13d, Drug-2 3.14 nM): 134.444 U/L and 173.229 U/L and 165.776 U/L
CDH-3-TF controlled Luciferase expression ([2]; Fig S13d, Drug-2 3.14 nM): 43947 RLU and 39268 RLU and 39254 RLU
AIR-2-GEMS controlled SEAP expression ([2]; Fig S13d, Drug-2 10 nM): 190.854 U/L and 240.534 U/L and 260.228 U/L
CDH-3-TF controlled Luciferase expression ([2]; Fig S13d, Drug-2 10 nM): 47016 RLU and 49191 RLU and 50470 RLU
AIR-2-GEMS controlled SEAP expression ([2]; Fig S13d, Drug-2 31.4 nM): 299.546 U/L and 359.696 U/L and 315.099 U/L
CDH-3-TF controlled Luciferase expression ([2]; Fig S13d, Drug-2 31.4 nM): 45761 RLU and 44242 RLU and 45130 RLU
AIR-2-GEMS controlled SEAP expression ([2]; Fig S13d, Drug-2 100 nM): 326.848 U/L and 345.031 U/L and 379.553 U/L
CDH-3-TF controlled Luciferase expression ([2]; Fig S13d, Drug-2 100 nM): 45390 RLU and 42062 RLU and 45223 RLU
AIR-2-GEMS controlled SEAP expression ([2]; Fig S13d, Drug-2 314 nM): 491.977 U/L and 483.914 U/L and 518.642 U/L
CDH-3-TF controlled Luciferase expression ([2]; Fig S13d, Drug-2 314 nM): 40043 RLU and 38537 RLU and 34569 RLU
AIR-2-GEMS controlled SEAP expression ([2]; Fig S13d, Drug-2 1000 nM): 386.41 U/L and 334.548 U/L and 408.363 U/L
CDH-3-TF controlled Luciferase expression ([2]; Fig S13d, Drug-2 1000 nM): 40262 RLU and 37715 RLU and 45464 RLU
IC50 ([2]; Homo sapiens, HEK-293T, Fig5c SEAP turn ON via AIR-2-GEMS, four-parameter fit, given as IC50, read-out: IC50 (best-fit value)): 662 nM
Reporter background signal [3, 4]: 2.167 and 2.065 and 2.282
Reporter background signal [3, 5]: 2.782 and 3.488 and 3.279
